According to the supplement of paper PMC13380429:

Tests used:
Details in all cases: 72 h
U2OS [1] = assay: relative viability EC50 (midpoint between 100% and the lowest measured viability); higher = less toxic
Calu-3 [2] = assay: as above
Vero E6 [3] = assay: as above
HepG2 [4] = assay: as above
Caco-2 [5] = assay: as above
U2OS [6] = assay: cell viability relative to DMSO; higher = less toxic
Calu-3 [7] = assay: as above
Vero E6 [8] = assay: as above
HepG2 [9] = assay: as above
Caco-2 [10] = assay: as above
U2OS [11] = assay: drug sensitivity score (DSS) for viability; higher = more toxic; extreme values may be limits of the assay
Calu-3 [12] = assay: as above
Vero E6 [13] = assay: as above
HepG2 [14] = assay: as above
Caco-2 [15] = assay: as above

SMILES | relative viability EC50 (U2OS [1]) | relative viability EC50 (Calu-3 [2]) | relative viability EC50 (Vero E6 [3]) | relative viability EC50 (HepG2 [4]) | relative viability EC50 (Caco-2 [5]) | cell viability (U2OS [6]; 1 nM) | cell viability (U2OS [6]; 10 nM) | cell viability (U2OS [6]; 100 nM) | cell viability (U2OS [6]; 1000 nM) | cell viability (U2OS [6]; 10000 nM) | cell viability (Calu-3 [7]; 1 nM) | cell viability (Calu-3 [7]; 10 nM) | cell viability (Calu-3 [7]; 100 nM) | cell viability (Calu-3 [7]; 1000 nM) | cell viability (Calu-3 [7]; 10000 nM) | cell viability (Vero E6 [8]; 1 nM) | cell viability (Vero E6 [8]; 10 nM) | cell viability (Vero E6 [8]; 100 nM) | cell viability (Vero E6 [8]; 1000 nM) | cell viability (Vero E6 [8]; 10000 nM) | cell viability (HepG2 [9]; 1 nM) | cell viability (HepG2 [9]; 10 nM) | cell viability (HepG2 [9]; 100 nM) | cell viability (HepG2 [9]; 1000 nM) | cell viability (HepG2 [9]; 10000 nM) | cell viability (Caco-2 [10]; 1 nM) | cell viability (Caco-2 [10]; 10 nM) | cell viability (Caco-2 [10]; 100 nM) | cell viability (Caco-2 [10]; 1000 nM) | cell viability (Caco-2 [10]; 10000 nM) | drug sensitivity score (U2OS [11]) | drug sensitivity score (Calu-3 [12]) | drug sensitivity score (Vero E6 [13]) | drug sensitivity score (HepG2 [14]) | drug sensitivity score (Caco-2 [15])
Cc1cccc(N(C)C(=S)Oc2ccc3ccccc3c2)c1 [tolnaftate] | > 10 µM | > 10 µM | > 10 µM | > 10 µM | > 10 µM | 99.1% | 99.2% | 94.9% | 100% | 93.3% | 98% | 90% | 94% | 94.6% | 101% | 101% | 102% | 98.5% | 91.8% | 88.6% | 100% | 100% | 91.6% | 97.9% | 93.8% | 93.3% | 99.7% | 94% | 94.8% | 96.8% | 0 | 0 | 0.1 | 0 | 0
S=C=Nc1cccc(NC(=S)NCCCCNC(=S)Nc2cccc(N=C=S)c2)c1 [MRS-2578] | > 10 µM | > 10 µM | > 10 µM | > 10 µM | > 10 µM | 95.9% | 95.8% | 99.5% | 97.2% | 104% | 90.7% | 93.6% | 109% | 90.2% | 107% | 98.3% | 98.8% | 94.2% | 99.5% | 98.7% | 107% | 104% | 110% | 97.7% | 103% | 100% | 91.2% | 99.7% | 98.4% | 101% | 0 | 0 | 0 | 0 | 0
CC(N)CCCC(C)(C)O (stereo not given) [heptaminol] | > 10 µM | > 10 µM | > 10 µM | > 10 µM | > 10 µM | 95.1% | 97.7% | 98.1% | 103% | 105% | 94.4% | 144% | 103% | 101% | 94.2% | 95.1% | 95.7% | 97.3% | 94.3% | 104% | 106% | 96.3% | 102% | 95.6% | 104% | 90.3% | 91.7% | 96.7% | 107% | 106% | 0 | 0 | 0 | 0 | 0
CN[C@@H](C)C(=O)N[C@H](C(=O)N1CCC[C@H]1C(=O)N[C@H]1c2ccccc2C[C@H]1OCC#CC#CCO[C@@H]1Cc2ccccc2[C@@H]1NC(=O)[C@@H]1CCCN1C(=O)[C@@H](NC(=O)[C@H](C)NC)C1CCCCC1)C1CCCCC1 [AZD5582] | > 10 µM | 0.927 µM | > 10 µM | > 10 µM | > 10 µM | 98.3% | 104% | 98.4% | 101% | 91.1% | 102% | 99.8% | 85.8% | 73.2% | 37.7% | 100% | 106% | 119% | 95.2% | 136% | 107% | 98.8% | 94% | 106% | 87.8% | 93.3% | 103% | 102% | 93.4% | 82.4% | 0 | 6.8 | 0 | 0 | 1.1
O=c1cc(-c2ccccc2)oc2cc(O)cc(O)c12 [chrysin] | > 10 µM | > 10 µM | > 10 µM | > 10 µM | > 10 µM | 98.4% | 97% | 101% | 97.4% | 99.2% | 94.5% | 92.9% | 106% | 91.7% | 102% | 92.5% | 102% | 87.9% | 94.8% | 111% | 88.5% | 102% | 93.5% | 100% | 104% | 99.4% | 86.9% | 102% | 91.9% | 94.4% | 0 | 0 | 0 | 0 | 0
C[N+]1(C)[C@@H]2CC[C@H]1C[C@@H](OC(=O)C(O)c1ccccc1)C2 (stereo not given in full) [homatropine-methylbromide] | > 10 µM | > 10 µM | > 10 µM | > 10 µM | > 10 µM | 96.7% | 101% | 95.2% | 102% | 96.4% | 105% | 108% | 114% | 94.2% | 102% | 101% | 97.5% | 106% | 108% | 98.8% | 98.7% | 95.3% | 102% | 91.8% | 98.9% | 100% | 90.8% | 99.7% | 106% | 84.2% | 0 | 0 | 0 | 0 | 0.2
CC(C)(C)[C@]1(O)CCN2C[C@H]3c4ccccc4CCc4cccc(c43)[C@@H]2C1 [butaclamol] | > 10 µM | > 10 µM | > 10 µM | > 10 µM | > 10 µM | 95.5% | 101% | 92% | 101% | 90.2% | 90% | 99.7% | 97.2% | 112% | 94.9% | 98.4% | 103% | 104% | 98% | 102% | 108% | 100% | 96.3% | 90% | 95.5% | 101% | 94.3% | 93.9% | 99.6% | 94.5% | 0 | 0 | 0 | 0 | 0
CN1CC[C@H](c2c(O)cc(O)c3c(=O)cc(-c4ccccc4Cl)oc23)[C@H](O)C1 [alvocidib] | 0.28 µM | 0.138 µM | 0.29 µM | 0.111 µM | 0.242 µM | 98.7% | 101% | 95.4% | 3% | 3.4% | 89.9% | 98.4% | 80.4% | 36.8% | 37.4% | 102% | 102% | 95.2% | 5.5% | 3.4% | 100% | 106% | 59.3% | 9.5% | 7.2% | 104% | 99.3% | 93.3% | 25.5% | 30.2% | 18.1 | 14.5 | 17.8 | 22.1 | 14.7
C/C(=C\C(=O)OCCCCCCCCC(=O)O)C[C@@H]1OC[C@H](C[C@@H]2O[C@H]2[C@@H](C)[C@H](C)O)[C@@H](O)[C@H]1O [mupirocin] | > 10 µM | > 10 µM | > 10 µM | > 10 µM | > 10 µM | 104% | 99.7% | 99.3% | 94.7% | 99.8% | 106% | 104% | 102% | 90.8% | 109% | 97% | 102% | 95.4% | 97.3% | 97.1% | 104% | 100% | 100% | 100% | 92.2% | 99.9% | 107% | 95.2% | 98% | 102% | 0 | 0 | 0 | 0 | 0
O=C(Nc1c(-c2cccs2)nc2ccccn12)c1ccc(Cl)cc1 | > 10 µM | > 10 µM | > 10 µM | > 10 µM | > 10 µM | 104% | 96.7% | 103% | 99.3% | 103% | 106% | 104% | 103% | 86.9% | 107% | 96.7% | 103% | 96.6% | 95.1% | 92.9% | 98.9% | 95.3% | 99% | 101% | 91.4% | 99% | 95% | 104% | 97.5% | 102% | 0 | 0 | 0 | 0 | 0
Oc1ccc(O)cc1 [hydroquinone] | > 10 µM | > 10 µM | > 10 µM | > 10 µM | > 10 µM | 95.2% | 91% | 95.4% | 89% | 117% | 90.5% | 90% | 93.7% | 100% | 113% | 93.3% | 100% | 94.8% | 105% | 111% | 106% | 92.4% | 94.7% | 100% | 84.6% | 100% | 97.6% | 94.2% | 104% | 106% | 0 | 0 | 0 | 0.3 | 0
Cc1cn([C@H]2C=C[C@@H](CO)O2)c(=O)[nH]c1=O [stavudine] | > 10 µM | > 10 µM | > 10 µM | > 10 µM | > 10 µM | 102% | 99.7% | 103% | 96.7% | 106% | 94.1% | 102% | 92.9% | 101% | 108% | 92.7% | 94.5% | 95.9% | 104% | 105% | 88.4% | 91.5% | 93.8% | 98.4% | 95% | 92.7% | 92.4% | 82.9% | 113% | 88.6% | 0 | 0 | 0 | 0 | 0
